Read-outs that look alike come from different tables or passages of the source. Where a SMILES comes first, the peptide text is derived from it.
Assay: Chlorine dioxide compatibility: ClO2 decrease in 200 ppm ClO2 test samples containing an additive (UV/Vis absorption or titration)
Type: physicochemical
Conditions: for Chlorine dioxide (ppm): 200 ppm ClO2 composition with sucralose 0.5 wt. %
[1] = Table 2, 200 ppm ClO2 test sample, single additive at listed wt. %, interpolated to 8 hours
[2] = Table 2, […], interpolated to 8 hours
[3] = FIG. 1A, 200 ppm ClO2, single sweetener at 0.5 wt. %
[4] = Table 3, 200 ppm ClO2 test sample, single additive at listed wt. %, interpolated to 8 hours
[5] = Table 3, […], interpolated to 8 hours

**Q.** With `CC(C)[C@@H]1CC[C@@H](C)C[C@H]1O` [Comp. 1, L-menthol] as the compound, how does the “ClO2 decrease @ 8 hrs” value [1] read?
**A.** 1%

**Q.** With `CC12CCC(CC1=O)C2(C)C` (stereo not shown) [Comp. 3, Camphor] as the compound, how does the “ClO2 decrease @ 8 hrs” value [1] read?
**A.** 2%

**Q.** Which “ClO2 decrease @ 8 hrs” value [2] does the source give for `O=Cc1ccccc1` [compound 2, Benzaldehyde] here?
**A.** 1%

**Q.** Which “ClO2 decrease @ 8 hrs” value [1] does the source give for `CC(C)[C@@H]1CC[C@@H](C)CC1=O` [compound 4, Menthone] here?
**A.** 4%

**Q.** For `CCNC(=O)C1CC(C)CCC1C(C)C` (stereo not shown) [compound 5, Ethyl Menthane Carboxamide], which “ClO2 decrease @ 8 hrs” value [1] is on record?
**A.** 5%

**Q.** With `CC12CCC(CC1)C(C)(C)O2` [compound 6, Eucalyptol] as the compound, how does the “ClO2 decrease @ 8 hrs” value [1] read?
**A.** 13%

**Q.** What does the source list for `COC(=O)[C@H](Cc1ccccc1)NC(=O)[C@@H](N)CC(=O)O` [compound 7, Aspartame] (H-Asp-Phe-OMe)?
**A.** chlorine dioxide concentration versus time behaviour [3]: steep immediate declines in chlorine dioxide concentration, followed by much more gradual declines; ClO2 decrease @ 8 hrs [1]: 2%

**Q.** With `O.O.O=C1NS(=O)(=O)c2ccccc21.[Na]` [compound 9, Sodium saccharin Dihydrate] as the compound, how does the “ClO2 decrease @ 8 hrs” value read?
**A.** 3%

**Q.** And the “chlorine dioxide concentration versus time behaviour” value?
**A.** steep immediate declines in chlorine dioxide concentration, followed by much more gradual declines

**Q.** For `OC[C@H]1O[C@H](O[C@]2(CCl)O[C@H](CCl)[C@@H](O)[C@@H]2O)[C@H](O)[C@@H](O)[C@H]1Cl` [compound 10, Sucralose], which “chlorine dioxide concentration versus time behaviour” value [3] is on record?
**A.** steep immediate declines in chlorine dioxide concentration, followed by much more gradual declines

**Q.** What about the “ClO2 decrease @ 8 hrs” value [1] of the same compound?
**A.** 9%

**Q.** And the “chlorine dioxide present at 8 hours” value (interpolation of the data at 0.88 hours and 15.35 hours)?
**A.** 166.5 ppm

**Q.** What about the “Chlorine dioxide (ppm)” value (time 0.25 hours) of the same compound?
**A.** 183 ppm

**Q.** What about the “Chlorine dioxide (ppm)” value (time 0.88 hours) of the same compound?
**A.** 168 ppm

**Q.** And the “Chlorine dioxide (ppm)” value (time 15.35 hours)?
**A.** 165 ppm

**Q.** And the “Chlorine dioxide (ppm)” value (time 22.62 hours)?
**A.** 165 ppm

**Q.** And the “Chlorine dioxide (ppm)” value (time 70.58 hours)?
**A.** 163 ppm

**Q.** Which “ClO2 decrease @ 8 hrs” value [1] does the source give for `OCc1ccccc1` [compound 12, Benzyl Alcohol] here?
**A.** 8%

**Q.** For `CC(O)CO` (stereo not shown) [compound 13, Propylene Glycol], which “ClO2 decrease @ 8 hrs” value [2] is on record?
**A.** 1%

**Q.** Which “ClO2 decrease @ 8 hrs” value [1] does the source give for `OCC(O)CO` [compound 15, Glycerol] here?
**A.** 1%

**Q.** Which “ClO2 decrease @ 8 hrs” value does the source give for `CCOC(C)=O` [compound 16, Ethyl Acetate] here?
**A.** 3%

**Q.** With `CCO` [compound 17, Ethanol] as the compound, how does the “ClO2 decrease @ 8 hrs” value [1] read?
**A.** 4%

**Q.** Which “ClO2 decrease @ 8 hrs” value does the source give for `CC(C)=O` [compound 19, Acetone] here?
**A.** 0.04%

**Q.** Which “ClO2 decrease @ 8 hrs” value [2] does the source give for `N[C@@H](CCC(=O)O)C(=O)O` [compound 21, l-Glutamic Acid] here?
**A.** 1%

**Q.** Which “ClO2 decrease @ 8 hrs” value [4] does the source give for `O=C1O[C@H]([C@@H](O)CO)C(O)=C1O` [compound 28, Ascorbic Acid] here?
**A.** 100%

**Q.** With `C/C=C/C=C/C(=O)O` [compound 29, Sorbic Acid] as the compound, how does the “ClO2 decrease @ 8 hrs” value [4] read?
**A.** 100%

**Q.** For `COc1ccc(C=O)cc1OC` [compound 30, Methyl Vanillin], which “ClO2 decrease @ 8 hrs” value is on record?
**A.** 100%

**Q.** With `CC=Cc1ccc(OC)cc1` [compound 31, Anethole] as the compound, how does the “ClO2 decrease @ 8 hrs” value [5] read?
**A.** 100%

**Q.** Which results are given for `CC1=CC(=O)NS(=O)(=O)O1` [compound 32, Acesulfame Potassium]?
**A.** ClO2 decrease @ 8 hrs: 100%; chlorine dioxide concentration versus time behaviour: consumed all of the chlorine dioxide within about the first hour

**Q.** Which “ClO2 decrease @ 8 hrs” value does the source give for `C/C=C/C=C/C(=O)[O-].[K+]` [compound 35, Potassium Sorbate] here?
**A.** 99%

**Q.** Which “ClO2 decrease @ 8 hrs” value does the source give for `NCCO` [compound 38, Monoethanolamine] here?
**A.** 92%

**Q.** For t-Cinnamaldehyde [compound 26], which “ClO2 decrease @ 8 hrs” value [5] is on record?
**A.** 37%

Reference: US9101562B2, “Additives for chlorine dioxide-containing compositions” (BASF CORPORATION, priority 2010, dated 2015)
